Test results as given in the NIST ThermoML archive (doi:10.1016/j.jct.2017.07.014).
± gives the expanded uncertainty stated by the source.

Tests used:
[1] = molar heat capacity at constant pressure; xn = mol fraction of the nth substance listed; details: 102.6 kPa, Liquid, Large sample (1 g) DSC, x1 = 0.107
[2] = refractive index (other wavelength) (dimensionless); xn = mol fraction of the nth substance listed; details: 108 kPa, Liquid, Wavelength=632.8 nm, minimum deviation method

CCCCn1cc[n+](C)c1.F[P-](F)(F)(F)(F)F [1-butyl-3-methylimidazolium hexafluorophosphate] + CCO
[1]
Details | molar heat capacity at constant pressure [J/K/mol]
314.31 K | 176.72 ± 3
314.64 K | 177.08 ± 3
314.97 K | 177.44 ± 3.1
315.29 K | 177.86 ± 3.1
315.62 K | 178.15 ± 3.1
315.94 K | 178.8 ± 3.1
316.27 K | 179.08 ± 3.1
316.59 K | 179.58 ± 3.1
316.92 K | 179.87 ± 3.1
317.24 K | 180.44 ± 3.1
317.57 K | 180.87 ± 3.1
317.89 K | 181.23 ± 3.1
318.22 K | 181.8 ± 3.1
318.55 K | 182.3 ± 3.1
318.87 K | 182.66 ± 3.1
319.19 K | 183.3 ± 3.1
319.52 K | 183.87 ± 3.1
319.85 K | 184.38 ± 3.1
320.17 K | 184.88 ± 3.1
320.5 K | 185.38 ± 3.1
320.82 K | 186.02 ± 3.1
321.15 K | 186.45 ± 3.1
321.47 K | 187.09 ± 3.1
321.8 K | 187.95 ± 3.1
322.12 K | 188.6 ± 3.1
322.45 K | 189.38 ± 3.2
322.77 K | 190.17 ± 3.2
323.1 K | 190.89 ± 3.2
323.42 K | 191.96 ± 3.2
323.75 K | 192.96 ± 3.2
324.07 K | 194.61 ± 3.3
324.4 K | 195.89 ± 3.3
324.73 K | 198.26 ± 3.5
325.05 K | 201.76 ± 3.6
325.38 K | 205.34 ± 3.8
325.7 K | 210.28 ± 5.2
326.03 K | 181.08 ± 5.9
326.35 K | 178.08 ± 3.1
326.68 K | 176.79 ± 3.1
327 K | 175.93 ± 3.1
327.33 K | 175.36 ± 3.1
327.65 K | 174.93 ± 3.1
327.98 K | 174.57 ± 3.1
328.31 K | 174.36 ± 3.1
328.63 K | 174.29 ± 3.1
328.96 K | 174.07 ± 3.1
329.28 K | 173.93 ± 3.1
329.61 K | 173.79 ± 3.1
329.93 K | 173.72 ± 3.1
330.26 K | 173.64 ± 3.1
330.58 K | 173.57 ± 3.1
330.91 K | 173.5 ± 3.1
331.23 K | 173.43 ± 3.1
331.56 K | 173.43 ± 3.1
331.88 K | 173.43 ± 3.1
332.21 K | 173.43 ± 3.1
332.53 K | 173.29 ± 3.1
332.86 K | 173.43 ± 3.1
333.19 K | 173.43 ± 3.1
333.51 K | 173.43 ± 3.1
333.84 K | 173.36 ± 3.1
334.16 K | 173.5 ± 3.1
334.49 K | 173.57 ± 3.1
334.81 K | 173.72 ± 3.1
335.14 K | 173.86 ± 3.1
335.46 K | 174.22 ± 3.1
335.78 K | 173.72 ± 3.1
336.09 K | 173.29 ± 3.1
336.38 K | 173.07 ± 3.1
336.76 K | 172.93 ± 3.1
337.09 K | 172.79 ± 3.1
337.41 K | 173.5 ± 3.1
337.74 K | 174.07 ± 3.1
338.06 K | 174.07 ± 3.1
338.39 K | 174.14 ± 3.1
338.72 K | 174.43 ± 3.1
339.05 K | 174.22 ± 3.1
339.35 K | 174.07 ± 3.1
339.69 K | 174.72 ± 3.1
340.04 K | 174.72 ± 3.1
340.35 K | 175.07 ± 3.1
340.66 K | 175.58 ± 3.1
340.99 K | 175.29 ± 3.1
341.32 K | 175.07 ± 3.1
341.64 K | 175 ± 3.1
341.98 K | 175.29 ± 3.1
342.3 K | 174.93 ± 3.1
342.6 K | 175.58 ± 3.1
342.93 K | 175.43 ± 3.1
343.26 K | 175.79 ± 3.1
343.6 K | 175.65 ± 3.1
343.91 K | 175.72 ± 3.1
344.24 K | 175.72 ± 3.1
344.56 K | 175.79 ± 3.1
344.9 K | 175.86 ± 3.1
345.21 K | 176.08 ± 3.1
345.55 K | 175.93 ± 3.1
345.87 K | 175.86 ± 3.1
346.19 K | 176.15 ± 3.1
346.54 K | 176.65 ± 3.1
346.86 K | 176.43 ± 3.1
347.17 K | 177.08 ± 3.1
347.51 K | 176.72 ± 3.1
347.82 K | 176.65 ± 3.1
348.15 K | 176.79 ± 3.1

[2]
Details | refractive index
315.21 K, x1 = 1 | 1.4038 ± 0.0003
317.26 K, x1 = 1 | 1.4032 ± 0.0003
319.23 K, x1 = 1 | 1.4027 ± 0.0003
320.24 K, x1 = 0.3 | 1.3841 ± 0.0002
320.24 K, x1 = 0.4 | 1.3889 ± 0.0002
320.24 K, x1 = 0.901 | 1.4008 ± 0.0003
320.25 K, x1 = 0.6 | 1.3951 ± 0.0003
320.25 K, x1 = 0.7 | 1.3973 ± 0.0003
320.26 K, x1 = 0.801 | 1.3992 ± 0.0003
320.27 K, x1 = 0.5 | 1.3923 ± 0.0002
321.27 K, x1 = 0.3 | 1.3838 ± 0.0003
321.27 K, x1 = 0.801 | 1.3989 ± 0.0003
321.27 K, x1 = 0.901 | 1.4005 ± 0.0003
321.28 K, x1 = 0.7 | 1.3971 ± 0.0003
321.29 K, x1 = 0.4 | 1.3886 ± 0.0002
321.29 K, x1 = 0.6 | 1.3949 ± 0.0003
321.35 K, x1 = 0.5 | 1.392 ± 0.0002
321.47 K, x1 = 1 | 1.4021 ± 0.0003
322.24 K, x1 = 0.3 | 1.3835 ± 0.0002
322.27 K, x1 = 0.7 | 1.3968 ± 0.0003
322.27 K, x1 = 0.901 | 1.4002 ± 0.0003
322.29 K, x1 = 0.4 | 1.3884 ± 0.0002
322.29 K, x1 = 0.5 | 1.3918 ± 0.0002
322.29 K, x1 = 0.6 | 1.3945 ± 0.0003
322.29 K, x1 = 0.801 | 1.3987 ± 0.0003
323.24 K, x1 = 0.901 | 1.4 ± 0.0003
323.25 K, x1 = 0.3 | 1.3832 ± 0.0002
323.27 K, x1 = 0.5 | 1.3915 ± 0.0002
323.28 K, x1 = 0.801 | 1.3984 ± 0.0003
323.3 K, x1 = 0.4 | 1.388 ± 0.0002
323.3 K, x1 = 0.6 | 1.3943 ± 0.0003
323.3 K, x1 = 0.7 | 1.3965 ± 0.0003
323.47 K, x1 = 1 | 1.4016 ± 0.0003
323.58 K, x1 = 0.2 | 1.3759 ± 0.0003
324.23 K, x1 = 0.801 | 1.3981 ± 0.0003
324.23 K, x1 = 0.901 | 1.3997 ± 0.0003
324.24 K, x1 = 0.7 | 1.3962 ± 0.0003
324.26 K, x1 = 0.3 | 1.3828 ± 0.0002
324.28 K, x1 = 0.4 | 1.3877 ± 0.0002
324.28 K, x1 = 0.6 | 1.394 ± 0.0003
324.3 K, x1 = 0.5 | 1.3912 ± 0.0002
324.56 K, x1 = 0.2 | 1.3756 ± 0.0003
325.26 K, x1 = 0.801 | 1.3979 ± 0.0003
325.28 K, x1 = 0.4 | 1.3874 ± 0.0002
325.28 K, x1 = 0.6 | 1.3938 ± 0.0003
325.31 K, x1 = 0.3 | 1.3825 ± 0.0002
325.31 K, x1 = 0.901 | 1.3994 ± 0.0003
325.32 K, x1 = 0.7 | 1.396 ± 0.0003
325.34 K, x1 = 0.5 | 1.3909 ± 0.0002
325.4 K, x1 = 1 | 1.4011 ± 0.0003
325.42 K, x1 = 0.1 | 1.3647 ± 0.0004
325.63 K, x1 = 0.2 | 1.3753 ± 0.0003
326.48 K, x1 = 0.4 | 1.387 ± 0.0002
326.51 K, x1 = 0.3 | 1.3822 ± 0.0002
326.58 K, x1 = 0.801 | 1.3975 ± 0.0003
326.59 K, x1 = 0.901 | 1.3991 ± 0.0003
326.6 K, x1 = 0.5 | 1.3905 ± 0.0002
326.6 K, x1 = 0.6 | 1.3934 ± 0.0003
326.61 K, x1 = 0.7 | 1.3956 ± 0.0003
326.64 K, x1 = 0.1 | 1.3643 ± 0.0003
327.05 K, x1 = 0.2 | 1.3748 ± 0.0003
327.64 K, x1 = 0.4 | 1.3867 ± 0.0002
327.65 K, x1 = 0.5 | 1.3902 ± 0.0002
327.67 K, x1 = 0.6 | 1.3931 ± 0.0003
327.73 K, x1 = 0.7 | 1.3953 ± 0.0003
327.75 K, x1 = 0.3 | 1.3817 ± 0.0002
327.86 K, x1 = 0.1 | 1.3639 ± 0.0003
327.91 K, x1 = 0.901 | 1.3987 ± 0.0003
327.93 K, x1 = 0.801 | 1.3972 ± 0.0003
328.27 K, x1 = 0.2 | 1.3744 ± 0.0003
328.91 K, x1 = 0.1 | 1.3636 ± 0.0003
329.44 K, x1 = 0.1 | 1.3634 ± 0.0003
